This note sets out measurements from US20140148606A1, “ANTI-TUMOR EFFECTS OF ALLOSTERIC FOCAL ADHESION KINASE INHIBITOR, METHYL VIOLET DERIVATIVES” (Korea Institute of Science and Technology, priority 2012, published 2014).

SMILES strings stand for the structures.

The subject of one data set is A375P. Put plainly: Anti-proliferative activity assay (MTT / CellTiter-Glo). In kind it is cell-based. The settings on record: Homo sapiens, skin, read-out: IC50 (nM), proliferation. The protocol: (§1) Melanoma cells (A375P, A375SM) and breast cancer cells (MDA-MB-231, MCF7) were maintained in DMEM medium (Welgene, Daegu, Korea). Colorectal cancer cells (HCT116, HT29), lung cancer cells (A549) and prostate cancer cells (DU145) were grown in RPMI1640 medium (Welgene). NIH3T3 and Balb/c cells were cultured in DMEM/F12 medium (Welgene).
(§2) Each medium was supplemented with 10% FBS (Welgene) and 1% penicillin/streptomycin (Welgene) in a humidified atmosphere with 5% CO2 at 37° C. A375P cells were purchased from the American Type Culture Collection (ATCC, Rockville, Md., US), and A375SM, MDA-MB-231, MCF7, HCT116, HT29, A549, DU145, NIH3T3 and Balb/c were purchased from the Korean Cell Line Bank (Seoul, Korea).
(§3) Cells were taken from culture substrate with 0.05% trypsin-0.02% EDTA and plated at a density of 5×10^3 cells/well in 96 well plates and then incubated at 37° C. for 24 h in a humidified atmosphere with 5% CO2 prior to treatment of various concentration (tenfold serial dilution, 6 steps) of test compounds. The cell viability was assessed by the conventional 3-(4,5-dimethylthiazol-2-yl)-2,5-diphenyltetrazolium bromide (MTT) reduction assay and luminescent assay. The MTT and luminescent assays were carried out with CellTiter 96® and CellTiter-Glo® Luminescent Cell Viability Assay (Promega, Wis., USA) according to the manufacturer's instructions. The absorbance at 590 nm was recorded using EnVision2103 (PerkinElmer; Boston, Mass., US). The IC50 value was calculated using the GraphPad Prism 4.0 software.

The test system of the next data set is A375SM. The description is as above. It counts as cell-based. The settings on record: Homo sapiens, A375-SM, skin, read-out: IC50 (nM), proliferation. The protocol: as §1, §2, §3
The test system of the next data set is A549. The description is as above. The settings on record: Homo sapiens; A549, lung; read-out: IC50 (nM), proliferation. It counts as cell-based. The protocol: as §1, §2, §3
The subject of the next data set is Balb/c. The data set is described as above. In kind it is cell-based. The settings on record: Mus musculus, fibroblast, read-out: IC50 (nM), proliferation. The protocol:
as §1, §2, §3

A further data set has as its system DU145. Described as above. It counts as cell-based. The settings on record: Homo sapiens, DU-145; DU145, prostate; read-out: IC50 (nM), proliferation. The procedure:
as §1, §2, §3

For a further data set, the system named is HCT116. The description is as above. In kind it is cell-based. The following applies: Homo sapiens, HCT-116; HCT116, colon; read-out: IC50 (nM), proliferation. The procedure:
as §1, §2, §3

Another data set deals with HT29. The description is as above. It counts as cell-based. The following applies: Homo sapiens, HT-29; HT29, colon; read-out: IC50 (nM), proliferation. The protocol: as §1, §2, §3
The next data set relates to MCF7. The description is as above. In kind it is cell-based. The following applies: Homo sapiens; MCF7, breast; read-out: IC50 (nM), proliferation. The protocol:
as §1, §2, §3

The test system of a further data set is MDA-MB-231. The description is as above. The following applies: Homo sapiens; MDA-MB-231, breast; read-out: IC50 (nM), proliferation. In kind it is cell-based. The protocol: as §1, §2, §3
The next data set relates to NIH3T3. The data set is described as above. It counts as cell-based. The settings on record: Mus musculus; NIH3T3, fibroblast; read-out: IC50 (nM), proliferation. The procedure:
as §1, §2, §3

The next data set concerns the target T1, full-length FAK (Homo sapiens, UniProt Q05397).
T1 construct: purchased Signalchem
Put plainly: FAK biochemical kinase assay (LANCE Ultra TR-FRET). The settings on record: for dependence of kinase inhibitory activity against full-length FAK on the concentration of ATP: methyl violet 2B at 2.7 μM, FIG. 2. The procedure:
Kinase reactions were performed at room temperature in lysis buffer (50 mM HEPES pH 7.5, 1 mM EGTA, 10 mM MgCl2, 2 mM DTT and 0.01% Tween-20) with 0.3 nM FAK (Signalchem), 100 nM ULight-poly GT (PerkinElmer), 10 μM ATP, and various concentrations (10 fold serial dilution, 6 points) of test compounds at a final volume of 10 μL. After 1 h, the kinase reaction was stopped by adding 10 mM EDTA and progressed by incubating the reaction mixture at room temperature for 5 min. To the mixture was added Detection Mix (Eu-anti-phospho-Tyr (PT66)) antibody to a final concentration of 2 nM and incubated for 1 h at room temperature. The plates were covered before being read using an EnVision® Multilabel reader in TR-FRET mode (excitation at 320 nm and emission at 665 nm, PerkinElmer).

The test system of a further data set is FAK. Kind of data set: Western analysis, FAK phosphorylation in A375P cells. In kind it is cell-based, human. The following applies: 0.1-10 nM, 48 h. The protocol: (§4) After incubating with the test compound for 48 h, both adherent and floating cancer cells were collected. The cells were lysed on ice in lysis buffer (50 mM Tris, pH 7.4, 150 mM NaCl, 1 mM EDTA, 1% NP-40, 0.25% sodium deoxycholate) supplemented with phosphatase inhibitors (Sigma #P2850, #5726; Phosphatase Inhibitor Cocktail I & II) and protease inhibitors (Complete, Mini, EDTA-free; Roche Applied Science) for 20 min. The protein concentration was determined using the Bio-Rad Protein assay reagent (Bio-Rad #500-0006). The lysate was centrifuged at 13000 rpm at 4° C. for 20 min. 50 μg of total proteins were mixed with […] (50 mM Tris-HCl (pH 6.8), 2% SDS, 10% 2-mercaptoethanol, 10% glycerol, and 0.002% bromophenol blue), boiled for 5 min, and subjected to a 10% SDS polyacrylamide gel electrophoresis. The proteins were electrophoresed onto nitrocellulose membranes and detected with antibodies against FER, FAK, DOCK180, Pyk2, Paxillin, AKT, GSK3, PTEN, JNK, ERK, Bcl-2, C-raf and Actin and against phosphorylated FER Tyr402, FAK Tyr925, Tyr861, Tyr577, Tyr576, Tyr397, Pyk2 Tyr402, Paxillin Tyr118, AKT S473, T308, GSK3β S9, JNK, ERK, Bad, C-raf and ERM T567, T564, T558 followed by the addition of horseradish peroxidase (HRP)-conjugated secondary antibodies and 3,3-diaminobenzidine tetrahydrochloride (DAB) as the HRP substrate.

The test system of a further data set is FER Tyr402. Kind of data set: Western analysis, FER phosphorylation in A375P cells. It counts as cell-based, human. The settings on record: 10 nM, 48 h. The procedure:
as §4

For the next data set, the system named is AKT. Kind of data set: Western analysis, AKT phosphorylation in A375P cells. In kind it is cell-based, human. The following applies: 1 nM, 48 h. The protocol:
as §4

The subject of a further data set is GSK3β S9. Put plainly: Western analysis, GSK3β phosphorylation in A375P cells. It counts as cell-based, human. The settings on record: dose-dependent, 48 h. The protocol: as §4
For a further data set, the system named is PTEN. Put plainly: Western analysis, PTEN level in A375P cells. It counts as cell-based, human. The settings on record: 48 h. The procedure: as §4
Another data set has as its system p-ERK. Kind of data set: Western analysis, ERK phosphorylation in A375P cells. In kind it is cell-based, human. The following applies: 10 nM, 48 h. The protocol: as §4
For the next data set, the system named is p-JNK. Put plainly: Western analysis, JNK phosphorylation in A375P cells. It counts as cell-based, human. The following applies: 10 nM, 48 h. The procedure: as §4
The next data set has as its system Bcl-2. Kind of data set: Western analysis, Bcl-2 expression. The settings on record: concentrations >1 nM, concentration-dependent. In kind it is cell-based, human. The protocol:
as §4

Another data set relates to p-Bad. Kind of data set: Western analysis, Bad phosphorylation. In kind it is cell-based, human. The following applies: compared to Bcl-2. The protocol:
as §4

The subject of another data set is C-raf. Kind of data set: Western analysis, C-raf phosphorylation. It counts as cell-based, human. The protocol:
as §4

Data set [1] relates to A375P cells. Kind of data set: QCM ECMatrix Cell Invasion Assay. In kind it is cell-based, human. The following applies: 1 nM, 48 h. The procedure:
Invasion of A375P cells was assessed by using the QCM ECMatrix Cell Invasion Assay (Chemicon, Millipore, Calif.) according to the manufacturer's protocol. The cells were plated on the membrane of the upper chamber of the transwell at a concentration of 2.5×10^5 cells/well in 500 μL of serum-free medium. The medium in the lower chamber contained the test compound and 10% fetal bovine serum. The cells that passed through the polycarbonate membrane were stained with cell stain solution supplied in the Transwell Invasion assay (Chemicon, Millipore, Calif.) and photographed after 48 h of incubation. The invasion was quantitated by dissolving the stained cells in 10% acetic acid and transferring a consistent amount of the dye/solute mixture to a 96-well plate for colorimetric reading of OD at 560 nm.

Data set [2] concerns A375P cells. Put plainly: Migration (wound healing) assay, Ibidi Culture-Insert. It counts as cell-based, human. The settings on record: 1 nM, 48 h. The procedure: Migration of the A375P cells was assessed by using the Culture-Inserts (Ibidi) according to the manufacturer's protocol. The cells were plated at a density of 1×10^5 cells/well in each well of Culture-Inserts. After 24 h incubation, the Culture-Inserts were removed, and wounds were created by using a 500-μm thick wall. The dish containing these cells was treated with medium containing the compound and incubated at 37° C. for 48 h. Phase-contrast images of the closed gap wound were captured using a microscope.

T1 sequence (Q05397 whole entry): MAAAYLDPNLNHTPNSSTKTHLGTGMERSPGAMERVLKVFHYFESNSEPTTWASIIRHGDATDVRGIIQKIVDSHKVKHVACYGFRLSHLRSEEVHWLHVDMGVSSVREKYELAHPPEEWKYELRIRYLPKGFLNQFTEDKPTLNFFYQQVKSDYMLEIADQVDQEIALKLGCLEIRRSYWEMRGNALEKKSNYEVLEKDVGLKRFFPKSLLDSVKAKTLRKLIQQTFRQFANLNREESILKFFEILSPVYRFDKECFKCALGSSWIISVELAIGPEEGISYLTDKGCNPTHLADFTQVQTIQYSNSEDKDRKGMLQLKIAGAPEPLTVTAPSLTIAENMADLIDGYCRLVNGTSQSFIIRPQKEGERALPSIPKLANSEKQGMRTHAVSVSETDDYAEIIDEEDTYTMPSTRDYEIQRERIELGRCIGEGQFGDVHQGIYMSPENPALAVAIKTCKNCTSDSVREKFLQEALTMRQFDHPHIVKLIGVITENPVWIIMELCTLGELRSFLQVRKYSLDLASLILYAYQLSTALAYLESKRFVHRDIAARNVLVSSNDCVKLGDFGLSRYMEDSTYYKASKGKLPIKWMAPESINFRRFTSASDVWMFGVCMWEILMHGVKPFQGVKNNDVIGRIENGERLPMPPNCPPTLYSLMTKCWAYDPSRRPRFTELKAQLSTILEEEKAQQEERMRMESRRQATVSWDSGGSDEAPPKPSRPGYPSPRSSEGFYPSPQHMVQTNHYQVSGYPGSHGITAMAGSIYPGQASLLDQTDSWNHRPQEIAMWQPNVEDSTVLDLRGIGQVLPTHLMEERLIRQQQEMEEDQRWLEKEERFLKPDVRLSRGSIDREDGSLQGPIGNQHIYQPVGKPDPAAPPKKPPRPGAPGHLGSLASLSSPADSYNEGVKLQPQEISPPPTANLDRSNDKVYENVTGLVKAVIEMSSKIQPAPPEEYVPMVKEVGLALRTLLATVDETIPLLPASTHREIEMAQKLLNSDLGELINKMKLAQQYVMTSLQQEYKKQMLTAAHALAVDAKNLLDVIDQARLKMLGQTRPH

Consider `CN=C1C=CC(=C(c2ccc(N(C)C)cc2)c2ccc(N(C)C)cc2)C=C1.Cl` [methyl violet 2B], for which the IC50 with A375P came out at 19.6 nM; in the data set with A375SM, 34.1 nM; with A549 it was 45.6 nM; in the data set on Balb/c it was 59400 nM; in the data set with DU145, 81.5 nM; with HCT116, 36.9 nM. For the same compound, the IC50 with HT29 turned out to be 18.1 nM; in the data set on MCF7, 69.7 nM; in the data set with MDA-MB-231 it was 13.4 nM; with NIH3T3 it was 938 nM; against full-length FAK (10 μM ATP, LANCE Ultra kinase assay) it was 2700 nM. In addition, the “dependence of kinase inhibitory activity against full-length FAK on the concentration of ATP” value on full-length FAK is listed as “independent of the concentration of ATP”. The “inhibitory effect on phosphorylation of FAK Tyr925, Tyr861 and Tyr577” value with FAK was “much greater than that of Y576 and Y397”. Also, the “inhibition of phosphorylation of FER Tyr402” value in the data set with FER Tyr402 was “significantly inhibits”. In addition, the “inhibition of p-AKT Ser473” value with AKT was “dramatically inhibits”. Also, the “inhibition of p-AKT Thr308” value in the data set with AKT was “dramatically inhibits”. Besides, the “phosphorylation of GSK3β S9” value in the data set with GSK3β S9 is given as “significantly blocked”. Also, the “level of PTEN” value in the data set with PTEN is given as “not altered”. In addition, the “inhibitory effect against p-ERK” value with p-ERK is listed as “strong inhibitory effect”. For the same compound, the “inhibitory effect against p-JNK” value in the data set with p-JNK was “strong inhibitory effect”. The “expression of the anti-apoptotic molecule Bcl-2” value in the data set with Bcl-2 is reported as “significantly suppressed”. Besides, the “effect on p-Bad” value in the data set on p-Bad is recorded as “less effective”. Further, the “phosphorylation of C-raf” value with C-raf is “did not affect”. The “invasion of the A375P cells” value in the data set on A375P cells [1] is recorded as “dose-dependent decrease”. Further, the “cancer cell (A375P) motility / migration” value with A375P cells [2] is “suppresses”.

For `CNC(=O)c1ccccc1Nc1nc(Nc2ccc(N3CCOCC3)cc2OC)ncc1Cl` [TAE226, reference compound], the “dependence of kinase inhibitory activity against full-length FAK on the concentration of ATP” value on full-length FAK is listed as “inversely proportional to the concentration of ATP”.
